Experimental data published in patent EP3390415B1, “(R)- AND (S)-1-(3-(3-N,N-DIMETHYLAMINOCARBONYL)PHENOXYL-4-NITROPHENYL)-1-ETHYL-N,N'-BIS (ETHYLENE)PHOSPHORAMIDATE, COMPOSITIONS AND METHODS FOR THEIR USE AND PREPARATION” (OBI PHARMA, INC., priority 2015, dated 2017).
Where two headings read alike, the source gives them in different places.

Assays:
Recombinant human AKR1C3 = Recombinant human AKR1C3 (Homo sapiens, UniProt P42330); assay: Activation by the aldoketo reductase AKR1C3; type: biochemical; settings: 5 µM, 2 mM NADPH, 37 °C, up to 120 min; FIG. 2
Procedure: Recombinant human AKR1C3 was diluted to 25 µg/mL in phosphate buffered saline (PBS), pH 7.4 (37 °C), containing 2 mM NADPH. TH2870 or progesterone (positive control) in 30% methanol/70% water was added to the reaction mixture at a final concentration of 5 µM and incubated at 37 °C for 120 minutes. At various times up to 120 min, 50 µL of the reaction mixture was taken and 200 µL acetonitrile containing propranolol as internal standard was added, vortex-mixed and centrifuged for 10 min. The resulting supernatant (5 µL) was injected into a LC/MS/MS for quantitation of % remaining TH 2870 and progesterone. The compounds were tested in duplicates.

H460 cells = assay: In vitro proliferation assay, H460; type: cell-based; settings: Homo sapiens, NCI-H460; 2 hrs exposure, wash, additional 70hrs, AlamarBlue; read-out: IC 50 in proliferation assay in H460 cells
Procedure: In vitro proliferation data on the H460 […] human tumor cell line is reported above in the compound table. IC50 values are reported in micromolar and result from exposure of compound at various concentrations for 2 hrs followed by a wash step and addition of fresh media followed by growth and cell viability staining and comparison to a media only treated control.
Specifically, exponentially growing cells were seeded at a density of 4 x 10^3 cells per well in a 96 well plate and incubated at 37°C in 5% CO2, 95% air and 100% relative humidity for 24 hours prior to addition of test compounds. Compounds were solubilized in 100% DMSO at 200 times the desired final test concentration. At the time of drug addition, compounds were further diluted to 4 times the desired final concentration with complete medium. Aliquots of 50 µl of compound at specified concentrations were added to microtiter wells already containing 150 µl of medium, resulting in the final drug concentration reported. After drug addition, the plates were incubated for an additional 2 hours at 37°C, 5% CO2, 95% air, and 100% relative humidity, then the drug was washed off and fresh medium was added and the plates were incubated for addition 70hrs at 37 °C, 5% CO2, 95% air and 100% relative humidity. At the end of this incubation, the viable cells were quantified using the AlamarBlue assay. The drug concentration resulting in growth inhibition of 50% (IC50) was calculated using Prism software (Irvine, CA), and the results were listed in the table.

HepG2 = assay: In vitro human tumor cell line cytotoxicity assay; type: cell-based; settings: for IC50: Homo sapiens
C3A = assay: In vitro human tumor cell line cytotoxicity assay; type: cell-based; settings: for IC50: Homo sapiens
HCCC9810 = assay: In vitro human tumor cell line cytotoxicity assay; type: cell-based; settings: for IC50: Homo sapiens
PLCPRF5 = assay: In vitro human tumor cell line cytotoxicity assay; type: cell-based; settings: for IC50: Homo sapiens
SNU-387 = assay: In vitro human tumor cell line cytotoxicity assay; type: cell-based; settings: for IC50: Homo sapiens
LIXC012 = assay: In vitro human tumor cell line cytotoxicity assay; type: cell-based; settings: for IC50: Homo sapiens
Vcap = assay: In vitro human tumor cell line cytotoxicity assay; type: cell-based; settings: for IC50: Homo sapiens, VCaP; for Max Inhibition% / Min Inhibition%: Vcap
[1] = tested on: A375 melanoma human tumor xenograft; assay: In vivo human tumor xenograft model, antitumor activity; parameters: species or system nude mice; settings: 20mpk,qdx5x2,ip
Description: Specific pathogen-free homozygous female nude mice (nu/nu, Charles River Laboratories) were used. Mice were given food and water ad libitum and housed in microisolator cages. Four to six week old animals were identified by microchips (Locus Technology, Manchester, MD, USA) at the time of the experiments. All animal studies were approved by the Institutional Animal Care and Use Committee at Threshold Pharmaceuticals, Inc.
All cell lines were from the American Type Culture Collection (ATCC, Rockville, MD, USA).
Cells were mixed with Matrigel (30% in H460) and 0.2 ml per mouse were subcutaneously implanted to the flank area of the animals. When tumor size reached 100-150 mm^3, mice were randomized into experimental or vehicle groups with 10 mice/group and treatment was started (Day 1). The tested compounds were formulated in 5% DMSO in D5W. All compounds were given by IP, QDx5/wk (5 days on, 2 days off) as one cycle, for a total of 2 cycles. Tumor growth and body weight were measured twice a week. Tumor volume was calculated as (length x width^2)/2. Drug efficacy was assessed as Tumor Growth Inhibition (TGI) and Tumor Growth Delay (TGD). TGI was defined as (1-ΔT/ΔC) x 100, where ΔT/ΔC presented the ratio of the change in mean (or median, if variation within the group was relatively large) tumor volume of the treated group and of the control group. TGD was calculated as the extra days for the treated tumor to reach 500mm^3 as compared to the control group. Animals were culled when individual tumor size reached over 2000mm^3 or mean tumor volume exceeded 1000mm^3 in the group. Data are expressed as the mean ± SEM. One-way analysis of variance with Dunnett post comparison test (GraphPad Prism 4) or two-tailed student's t-test were used for analysis. A P level < 0.05 was considered statistically significant.
This study employed an A375 melanoma human tumor xenograft model and the compounds provided herein were compared to thiotepa and the approved anti melanoma drug, Abraxane. […] Mpk refers to mg/kg.

[2] = Pharmacokinetics (TK) after 30-min IV infusion in monkeys; type: in vivo, Cynomolgus monkeys; settings: 2 mg/kg 30-min IV infusion; for MRT inf / clearance / half-life / Vd / concentration at 0.25 hr / concentration at 0.5 hr / concentration at 0.75 hr / concentration at 1 hr / concentration at 2 hr: cynomolgus monkey, plasma; for half-life: read-out: Terminal t1/2 (converted); for Vd: read-out: Vss
Procedure: (§1) TH 3423 and TH 3424 were tested in no naive monkeys (1 male and one female for each compound at 2 mg/kg) with 30-min intravenous infusion, TK sampling: on Day 1 and Day 15: 0.25, 0.5, 0.75, 1 and 2 hr post infusion initiation. Serum chemistry and hematology: pre-dose (Day 1), day 5, day 8 (pre-dose), day 15 (pre-dose), day 22 and day 28. Clinical observation: Daily during the study, total 35 days. Food consumption: Daily during the study, total 35 days. Bodyweight measurement: Twice weekly for five weeks.

[3] = Acute toxicity study in monkeys, body weight; type: in vivo, Cynomolgus monkeys; parameters: unit not given here; settings: 2 mg/kg IV infusion
Procedure: as §1

[4] = both sexes, mean, read-out: Plasma concentration, Mean
[5] = female, read-out: Plasma concentration
[6] = male, read-out: Plasma concentration

Sequence of Recombinant human AKR1C3 (P42330 whole entry): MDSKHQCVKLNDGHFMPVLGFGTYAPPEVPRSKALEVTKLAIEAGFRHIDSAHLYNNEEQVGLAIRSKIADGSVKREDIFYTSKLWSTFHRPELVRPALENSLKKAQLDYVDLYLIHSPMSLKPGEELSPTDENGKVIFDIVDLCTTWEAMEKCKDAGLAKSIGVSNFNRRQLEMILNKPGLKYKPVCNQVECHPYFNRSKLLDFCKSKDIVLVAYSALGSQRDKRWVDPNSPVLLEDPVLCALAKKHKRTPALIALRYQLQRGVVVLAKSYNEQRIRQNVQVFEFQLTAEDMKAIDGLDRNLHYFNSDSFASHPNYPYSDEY

## CC(=O)[C@H]1CC[C@H]2[C@@H]3CCC4=CC(=O)CC[C@]4(C)[C@H]3CC[C@]12C [Progesterone, reference compound]
Recombinant human AKR1C3
  disappearance of compound (% remaining) in the presence of AKR1C3: reduced slowly

## CC(OP(=O)(N1CC1)N1CC1)c1ccc([N+](=O)[O-])c(Oc2cccc(C(=O)N(C)C)c2)c1 (racemic) [TH 2870, (R,S)-1-(3-(3-N,N-dimethylaminocarbonyl)phenoxyl-4-nitrophenyl)-1-ethyl-N,N'-bis(ethylene)phosphoramidate]
H460 cells
  IC50: 0.005 µM
Recombinant human AKR1C3
  disappearance of compound (% remaining) in the presence of AKR1C3: rapid disappearance
HepG2
  Max Inhibition%: 98.9%
  Min Inhibition%: 3.3%
HepG2; read-out: AbsIC50
  IC50: 0.0064 µM
HepG2; read-out: RelIC50
  IC50: 0.0055 µM
C3A
  Max Inhibition%: 98.1%
  Min Inhibition%: 8.1%
C3A; read-out: AbsIC50
  IC50: 0.0062 µM
C3A; read-out: RelIC50
  IC50: 0.0071 µM
HCCC9810
  Max Inhibition%: 95.4%
  Min Inhibition%: -2.6%
HCCC9810; read-out: AbsIC50
  IC50: 0.0294 µM
HCCC9810; read-out: RelIC50
  IC50: 0.0292 µM
PLCPRF5
  Max Inhibition%: 53.3%
  Min Inhibition%: -1.7%
PLCPRF5; PLC-PRF-5, read-out: AbsIC50
  IC50: 0.575 µM
PLCPRF5; PLC-PRF-5, read-out: RelIC50
  IC50: 0.475 µM
SNU-387
  Max Inhibition%: 102.8%
  Min Inhibition%: 1.7%
SNU-387; read-out: AbsIC50
  IC50: 0.034 µM
SNU-387; read-out: RelIC50
  IC50: 0.0422 µM
LIXC012
  Max Inhibition%: 87.1%
  Min Inhibition%: 6.6%
LIXC012; read-out: AbsIC50
  IC50: 0.0187 µM
LIXC012; read-out: RelIC50
  IC50: 0.0274 µM
Vcap; read-out: AbsIC50
  IC50: 0.0152 µM
Vcap; read-out: RelIC50
  IC50: 0.0227 µM
Vcap
  Max Inhibition%: 100.2%
  Min Inhibition%: -3.4%
[1]
  TGD500, Days (vs. vehicle): >13 days
  TGI: 98.0%

## C[C@@H](OP(=O)(N1CC1)N1CC1)c1ccc([N+](=O)[O-])c(Oc2cccc(C(=O)N(C)C)c2)c1 (single isomer, unassigned) [TH3423]
H460 cells
  IC50: 0.005 µM
HepG2
  Max Inhibition%: 99.5%
  Min Inhibition%: -7.2%
HepG2; read-out: AbsIC50
  IC50: 0.0187 µM
HepG2; read-out: RelIC50
  IC50: 0.0131 µM
C3A
  Max Inhibition%: 98.5%
  Min Inhibition%: 5.4%
C3A; read-out: AbsIC50
  IC50: 0.0117 µM
C3A; read-out: RelIC50
  IC50: 0.0096 µM
HCCC9810
  Max Inhibition%: 93.7%
  Min Inhibition%: 0.0%
HCCC9810; read-out: AbsIC50
  IC50: 0.0187 µM
HCCC9810; read-out: RelIC50
  IC50: 0.0168 µM
PLCPRF5
  Max Inhibition%: 77.7%
  Min Inhibition%: -4.9%
PLCPRF5; PLC-PRF-5, read-out: AbsIC50
  IC50: 0.207 µM
PLCPRF5; PLC-PRF-5, read-out: RelIC50
  IC50: 0.156 µM
SNU-387
  Max Inhibition%: 99.8%
  Min Inhibition%: 1.3%
SNU-387; read-out: AbsIC50
  IC50: 0.0397 µM
SNU-387; read-out: RelIC50
  IC50: 0.0463 µM
LIXC012
  Max Inhibition%: 84.8%
  Min Inhibition%: -1.1%
LIXC012; read-out: AbsIC50
  IC50: 0.0169 µM
LIXC012; read-out: RelIC50
  IC50: 0.0081 µM
Vcap; read-out: AbsIC50
  IC50: 0.0216 µM
Vcap; read-out: RelIC50
  IC50: 0.0266 µM
Vcap
  Max Inhibition%: 101.0%
  Min Inhibition%: 1.1%
[2]; Mean
  AUCINF: 770 hr^∗ng/mL
  AUClast: 766 hr^∗ng/mL
[2]; both sexes, Mean
  MRT inf: 12.2 min
  clearance: 43.3 mL/min/kg
  half-life: 7.74 min
  Vd: 0.527 L/kg
[2]; [4]
  concentration at 0.25 hr: 1210 ng/mL
  concentration at 0.5 hr: 1400 ng/mL
  concentration at 0.75 hr: 336 ng/mL
  concentration at 1 hr: 70 ng/mL
[2]; both sexes, mean, 2 hr, read-out: Plasma concentration, Mean
  concentration at 2 hr: 1.03 ng/mL
[2]; [5]
  concentration at 0.25 hr: 1320 ng/mL
  concentration at 0.5 hr: 1370 ng/mL
  concentration at 0.75 hr: 313 ng/mL
  concentration at 1 hr: 55 ng/mL
[2]; female
  MRT inf: 10.8 min
  clearance: 43.5 mL/min/kg
  half-life: 6.48 min
  Vd: 0.469 L/kg
  AUCINF: 766 hr^∗ng/mL
  AUClast: 758 hr^∗ng/mL
[2]; [6]
  concentration at 0.25 hr: 1100 ng/mL
  concentration at 0.5 hr: 1420 ng/mL
  concentration at 0.75 hr: 359 ng/mL
  concentration at 1 hr: 85 ng/mL
[2]; male, 2 hr, read-out: Plasma concentration
  concentration at 2 hr: 1.03 ng/mL
[2]; male
  MRT inf: 13.6 min
  clearance: 43.2 mL/min/kg
  half-life: 9 min
  Vd: 0.584 L/kg
  AUCINF: 774 hr^∗ng/mL
  AUClast: 773 hr^∗ng/mL
[2]; female, 2 hr
  Plasma concentration: BQL
[3]; Mean, Day 1
  body weight: 3.50
[3]; Mean, Day 4
  body weight: 3.39
[3]; Mean, Day 8
  body weight: 3.32
[3]; Mean, Day 11
  body weight: 2.96
[3]; female, Day 1
  body weight: 3.65
[3]; female, Day 4
  body weight: 3.55
[3]; female, Day 8
  body weight: 3.41
[3]; female, Day 11
  body weight: 2.96
[3]; male, Day 1
  body weight: 3.35
[3]; male, Day 4
  body weight: 3.23
[3]; male, Day 8
  body weight: 3.23
[3]; male, Day 11
  body weight: 2.95
